# Calls of active or inactive are those of the source. No rule for the calls is given here.
# System: CCRIS mutagenicity, Ames/micronucleus/aberration tests
# Test: CCRIS mutagenicity studies
# [1] = Test System: AMES SALMONELLA TYPHIMURIUM, Strain/Indicator: TA98, Metabolic Activation: NONE, Method: STANDARD PLATE
# [2] = Test System: AMES SALMONELLA TYPHIMURIUM, Strain/Indicator: TA98, Metabolic Activation: RAT, LIVER, S-9, AROCLOR 1254, Method: STANDARD PLATE
# [3] = Test System: AMES SALMONELLA TYPHIMURIUM, Strain/Indicator: TA100, Metabolic Activation: NONE, Method: STANDARD PLATE
# [4] = Test System: AMES SALMONELLA TYPHIMURIUM, Strain/Indicator: TA100, Metabolic Activation: RAT, LIVER, S-9, AROCLOR 1254, Method: STANDARD PLATE
# [5] = Test System: AMES SALMONELLA TYPHIMURIUM, Strain/Indicator: TA1535, Metabolic Activation: NONE, Method: STANDARD PLATE
# [6] = Test System: AMES SALMONELLA TYPHIMURIUM, Strain/Indicator: TA1535, Metabolic Activation: RAT, LIVER, S-9, AROCLOR 1254, Method: STANDARD PLATE
# [7] = Test System: AMES SALMONELLA TYPHIMURIUM, Strain/Indicator: TA1537, Metabolic Activation: NONE, Method: STANDARD PLATE
# [8] = Test System: AMES SALMONELLA TYPHIMURIUM, Strain/Indicator: TA1537, Metabolic Activation: RAT, LIVER, S-9, AROCLOR 1254, Method: STANDARD PLATE
# [9] = Test System: AMES SALMONELLA TYPHIMURIUM, Strain/Indicator: TA1538, Metabolic Activation: NONE, Method: STANDARD PLATE
# [10] = Test System: AMES SALMONELLA TYPHIMURIUM, Strain/Indicator: TA1538, Metabolic Activation: RAT, LIVER, S-9, AROCLOR 1254, Method: STANDARD PLATE
compound,measurement,setting,value
CN(C)CC/C=C1\c2ccccc2COc2ccccc21,mutagenic call,[1],inactive; negative
same,mutagenic call,[2],inactive; negative
same,mutagenic call,[3],inactive; negative
same,mutagenic call,[4],inactive; negative
same,mutagenic call,[5],inactive; negative
same,mutagenic call,[6],inactive; negative
same,mutagenic call,[7],inactive; negative
same,mutagenic call,[8],inactive; negative
NC(N)=NCCCC(N)C(=O)O (centres undefined),mutagenic call,"Test System: AMES SALMONELLA TYPHIMURIUM, Strain/Indicator: TA98, Metabolic Activation: RAT LIVER S-9, CHLOROPHENE, Method: STANDARD PLATE (COMPOUND HEATED AT 250 DEGREES CELSIUS FOR 20 MIN)",active; positive
same,mutagenic call,"Test System: Ames Salmonella typhimurium, Strain/Indicator: TA98, Metabolic Activation: Rat, Liver, S9, Aroclor 1254, assay without cofactors, Method: Preincubation",inactive; negative
same,mutagenic call,"Test System: Ames Salmonella typhimurium, Strain/Indicator: TA98, Metabolic Activation: Rat, Liver, S9, Aroclor 1254, heat inactivated, Method: Preincubation",inactive; negative
same,mutagenic call,"Test System: Ames Salmonella typhimurium, Strain/Indicator: TA98, Metabolic Activation: Rat, Liver, S9, Aroclor 1254, Method: Preincubation",active; positive. statistically significant at 2 highest doses.
CC(O)Cc1cc(N)cc([N+](=O)[O-])c1N (centres undefined),mutagenic call,[1],inactive; negative
same,mutagenic call,[2],inactive; negative
same,mutagenic call,[3],inactive; negative
same,mutagenic call,[4],inactive; negative
same,mutagenic call,[5],inactive; negative
same,mutagenic call,[6],inactive; negative
same,mutagenic call,[7],inactive; negative
same,mutagenic call,[8],inactive; negative
same,mutagenic call,[9],inactive; negative
same,mutagenic call,[10],inactive; negative
Clc1ccc(-c2nc3ccccc3o2)cc1,mutagenic call,[1],inactive; negative
same,mutagenic call,"Test System: AMES SALMONELLA TYPHIMURIUM, Strain/Indicator: TA98, Metabolic Activation: S-9, Method: STANDARD PLATE",inactive; negative
OC1c2c(ccc3c2ccc2ccccc23)C2OC2C1O (centres undefined),mutagenic call,"Test System: AMES SALMONELLA TYPHIMURIUM, Strain/Indicator: TA98, Metabolic Activation: NONE, Method: PREINCUBATION",active; positive
same,mutagenic call,"Test System: CHINESE HAMSTER V-79, Strain/Indicator: V-79/6-THIOGUANINE, Metabolic Activation: NONE",active; positive
C=C(C=O)CCC,mutagenic call,"Test System: AMES SALMONELLA TYPHIMURIUM, Strain/Indicator: TA100, Metabolic Activation: RAT LIVER S-9, AROCLOR 1254, Method: PREINCUBATION",active; positive
same,mutagenic call,"Test System: AMES SALMONELLA TYPHIMURIUM, Strain/Indicator: TA100, Metabolic Activation: RAT, LIVER, S-9, AROCLOR 1254, Method: PREINCUBATION",active; positive
CC(=O)c1cc2c(cc1C)C(C)(C)C(C)C2C(C)C (centres undefined),mutagenic call,"Test System: AMES SALMONELLA TYPHIMURIUM, Strain/Indicator: TA97, Metabolic Activation: NONE, Method: STANDARD PLATE",inactive; negative
same,mutagenic call,"Test System: AMES SALMONELLA TYPHIMURIUM, Strain/Indicator: TA97, Metabolic Activation: RAT LIVER S-9, AROCLOR 1254, Method: STANDARD PLATE",inactive; negative
same,mutagenic call,[1],inactive; negative
same,mutagenic call,"Test System: AMES SALMONELLA TYPHIMURIUM, Strain/Indicator: TA98, Metabolic Activation: RAT LIVER S-9, AROCLOR 1254, Method: STANDARD PLATE",inactive; negative
same,mutagenic call,[3],inactive; negative
same,mutagenic call,"Test System: AMES SALMONELLA TYPHIMURIUM, Strain/Indicator: TA100, Metabolic Activation: RAT LIVER S-9, AROCLOR 1254, Method: STANDARD PLATE",inactive; negative
same,mutagenic call,"Test System: AMES SALMONELLA TYPHIMURIUM, Strain/Indicator: TA102, Metabolic Activation: NONE, Method: STANDARD PLATE",inactive; negative
same,mutagenic call,"Test System: AMES SALMONELLA TYPHIMURIUM, Strain/Indicator: TA102, Metabolic Activation: RAT LIVER S-9, AROCLOR 1254, Method: STANDARD PLATE",inactive; negative
Cc1ccc(N)cc1[N+](=O)[O-],mutagenic call,"Test System: AMES SALMONELLA TYPHIMURIUM, Strain/Indicator: TA98, Metabolic Activation: NONE, Method: SUSPENSION/PLATE",inactive; negative
same,mutagenic call,"Test System: AMES SALMONELLA TYPHIMURIUM, Strain/Indicator: TA98, Metabolic Activation: RAT, LIVER, S-9, KANECHLOR 500, Method: PREINCUBATION",active; positive
same,mutagenic call,"Test System: AMES SALMONELLA TYPHIMURIUM, Strain/Indicator: TA98, Metabolic Activation: RAT, LIVER, S-9, PCB, Method: PREINCUBATION",inactive; negative
same,mutagenic call,"Test System: AMES SALMONELLA TYPHIMURIUM, Strain/Indicator: TA98, Metabolic Activation: RAT, LIVER, S-9, PHENOBARBITAL AND 5,6-BENZOFLAVONE, Method: SUSPENSION/PLATE",inactive; negative
same,mutagenic call,"Test System: AMES SALMONELLA TYPHIMURIUM, Strain/Indicator: TA100, Metabolic Activation: NONE, Method: PREINCUBATION",active; positive
same,mutagenic call,"Test System: AMES SALMONELLA TYPHIMURIUM, Strain/Indicator: TA100, Metabolic Activation: NONE, Method: SUSPENSION/PLATE",inactive; negative
same,mutagenic call,"Test System: AMES SALMONELLA TYPHIMURIUM, Strain/Indicator: TA100, Metabolic Activation: RAT, LIVER, S-9, KANECHLOR 500, Method: PREINCUBATION",active; positive
same,mutagenic call,"Test System: AMES SALMONELLA TYPHIMURIUM, Strain/Indicator: TA100, Metabolic Activation: RAT, LIVER, S-9, PHENOBARBITAL AND 5,6-BENZOFLAVONE, Method: SUSPENSION/PLATE",inactive; negative
COc1cc(O)cc2c1cc([N+](=O)[O-])c1c(C(=O)O)cc3c(c12)OCO3,mutagenic call,"Test System: AMES SALMONELLA TYPHIMURIUM, Strain/Indicator: TM677/8-AZAGUANINE, Metabolic Activation: NONE, Method: SUSPENSION/PLATE",inactive; negative
CC1(C(=O)Nc2ccccc2)CO1 (centres undefined),mutagenic call,"Test System: AMES SALMONELLA TYPHIMURIUM, Strain/Indicator: TA100, Metabolic Activation: MOUSE, LIVER, S-9, AROCLOR 1254, Method: STANDARD PLATE",active; positive
same,mutagenic call,[3],active; positive
CCN(CC)c1ccc2cc(-c3nc4ccccc4n3C)c(=O)oc2c1,mutagenic call,[9],inactive; negative
same,mutagenic call,[10],inactive; negative

# From PubChem BioAssay AID1259407 (Chemical Carcinogenesis Research Information System (CCRIS), 2018)
